Earlier results as cited in PMC4007625, “A phase I study of AST1306, a novel irreversible EGFR and HER2 kinase inhibitor, in patients with advanced solid tumors” (Journal of Hematology & Oncology, 2014).

System: advanced/metastatic gastric cancer
Parameters: method as in PMID 21415234
Conditions: single agent, advanced/metastatic gastric cancer patients; cited from earlier work

## CS(=O)(=O)CCNCc1ccc(-c2ccc3ncnc(Nc4ccc(OCc5cccc(F)c5)c(Cl)c4)c3c2)o1 [lapatinib]
  response rate: 9%
